Here are results for 3 compounds from BindingDB's records for doi:10.1110/ps.0229303 (Gsk, 2003).

Holding throughout (assay): PDF Inhibition Assay
What all share (conditions): pH 7.6; 25 °C

The target in test [1] is T1, Peptide deformylase (Haemophilus influenzae (strain ATCC 51907 / DSM 11121 / KW20 / Rd), UniProt P44786).
T1 sequence (P44786 whole entry): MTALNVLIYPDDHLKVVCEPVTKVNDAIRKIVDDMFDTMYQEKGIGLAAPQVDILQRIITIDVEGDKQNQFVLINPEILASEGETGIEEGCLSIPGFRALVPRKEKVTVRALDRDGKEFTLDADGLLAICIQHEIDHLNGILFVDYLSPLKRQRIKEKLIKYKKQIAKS
The method, then:
(§1) Enzyme assay was carried out in 96-well microtiter plates with a SpectraMax plate reader (Molecular Devices Corp.). PDF activity was measured using a continuous enzyme-linked assay. The reaction was triggered with the addition of PDF enzyme, and absorbance was monitored for 15 min at 340 nm. […] A standard curve with NADH concentrations ranging from 0 to 1 mM was performed. The velocities obtained in mOD340 nm per minute were then converted to micromolar NADH produced per second to calculate Vmax. To determine IC50s, PDF activity was measured in the presence of increasing concentrations of the inhibitor in the presence of substrate concentration corresponding to Km values. All data fitting was carried out with nonlinear least squares regression using the commercial software package Graphit.

In test [2] the target is T2, Peptide deformylase (Escherichia coli (strain K12), UniProt P0A6K3).
T2 sequence (P0A6K3 whole entry): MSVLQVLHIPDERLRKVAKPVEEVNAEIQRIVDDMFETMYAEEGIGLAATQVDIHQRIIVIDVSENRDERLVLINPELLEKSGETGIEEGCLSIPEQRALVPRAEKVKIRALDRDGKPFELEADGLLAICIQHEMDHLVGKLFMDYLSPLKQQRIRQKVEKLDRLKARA
The protocol: as §1

Test [3] has as its target T3, Peptide deformylase (Staphylococcus aureus (strain Mu50 / ATCC 700699), UniProt P68825).
T3 sequence (P68825 whole entry): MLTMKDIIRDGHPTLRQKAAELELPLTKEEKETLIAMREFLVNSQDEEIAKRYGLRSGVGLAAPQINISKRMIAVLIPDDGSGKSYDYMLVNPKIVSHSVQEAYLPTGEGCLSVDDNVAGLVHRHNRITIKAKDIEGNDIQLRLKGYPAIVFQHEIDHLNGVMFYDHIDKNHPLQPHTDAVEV
The method, then: as §1

Test [4] concerns the target T4, Peptide deformylase (Streptococcus pneumoniae (strain ATCC BAA-255 / R6), UniProt Q8DP79).
T4 sequence (Q8DP79 whole entry): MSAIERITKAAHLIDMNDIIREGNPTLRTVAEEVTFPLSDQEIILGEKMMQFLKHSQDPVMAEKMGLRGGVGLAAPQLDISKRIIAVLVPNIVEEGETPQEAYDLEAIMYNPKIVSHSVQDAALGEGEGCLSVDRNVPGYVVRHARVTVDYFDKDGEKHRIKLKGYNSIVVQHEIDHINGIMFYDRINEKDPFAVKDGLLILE
The protocol: as §1

As a reminder, the IC50 is the concentration needed to halve the response being measured. A low value points to inhibition by little substance. In test [1], `Cc1cccc(CCCN(O)C=O)n1` [N-hydroxy-N-[3-(6-methylpyridin-2-yl)propyl]formamide] had an IC50 of 1.04 µM.

Regarding `O=CN(O)CCCc1ccccc1` [N-hydroxy-N-(3-phenylpropyl)formamide], the IC50 in test [2] is 0.16 µM; in test [1], 0.15 µM; in test [3], 0.25 µM; in test [4], 0.4 µM.

In test [1], `O=CN(O)CCOc1cccc(C(=O)c2ccccc2)c1` [N-[2-(3-benzoylphenoxy)ethyl]-N-hydroxyformamide] displayed a concentration for half-maximal inhibition (IC50) of 0.32 µM.
